Patent US20030186355A1, “Methods for selecting and producing t cell peptide epitopes and vaccines incorporating said selected epitopes” (priority 2000, published 2003)
Like-named read-outs stand apart in the source and are kept apart here.

How the values were obtained:
TAP [1] = details: previous study, Neisig et al., 1995; cited from earlier work
TAP [2] = test: TAP translocation of peptides into the endoplasmic reticulum; format: biochemical
T2 cells = test: 51Cr cytotoxicity assay with peptide pulsed targets; format: cell-based, human; details: targets pulsed at high peptide concentrations
Protocol: CTL activity was measured in a standard chromium release assay. Briefly, after ^51Cr labeling, target cells were pulsed with the designated peptide concentrations for 30 min or longer at 37° C. Target cells were added to various number of effector cells in a final volume of 100 μl complete culture medium in 96-well-U-bottom plates. After 4 h incubation at 37° C. supernatants were harvested.

Sequence	translocation by TAP into the ER (TAP [1])	translocation by TAP into the ER (TAP [2])	also measured
FAPGNYPAL	not efficiently translocated		
FNKSPWFTTL [proteasome fragment of MCF substrate, 10-mer]		efficiently translocated	
FNKSPWFTTLI [proteasome fragment of MCF substrate, 11-mer]		efficiently translocated	
GEFAPGNYPAL [proteasome fragment of Sendai substrate, N-terminally elongated 11-mer]	most efficiently translocated length variant		
KSPWFTTL	not translocated by TAP at all		
LYVDSLFFL [PRAME aa; 301-309, naturally presented in HLA-A24]			lysis of peptide pulsed targets by CTL clones (T2 cells): very low crossreactivity
PSSSWDFITVD [peptide fragment said to be generated by FBL-3 cells]		completely abolishes TAP translocation	
